The source of these data is paper PMC6664433 (Cancer discovery, 2019).

The subject of data set [1] is EGFR. Nature of the data set: Biotinylated EAI045 pull-down assay. The class given is binding. Conditions: following osimertinib treatment.
In data set [2] the test system is EGFR-mutant models. As to conditions: without cetuximab; cited from earlier work.
Data set [3] can be described thus: Pharmacokinetic study. The class given is in vivo.
Data set [4] has as its system parental Ba/F3 cells. Nature of the data set: Ba/F3 cell proliferation. The class given is cell-based, murine. Conditions: 72 hours.
The subject of data set [5] is Ba/F3 cells containing the L858R/C797S mutation. Nature of the data set: Ba/F3 cell proliferation. The class given is cell-based, murine. Conditions: compared to gefitinib.
Data set [6] has as its system panel of 468 kinases. Nature of the data set: KINOMEscan kinome selectivity profiling. As to conditions: 10µM, 35% cut-off. The class given is binding, human.
Data set [7] deals with Ba/F3 cell lines stably transfected with EGFR L858R, L858R/T790M or L858R/T790M/C797S. Kind of data set: Ba/F3 cell proliferation. It is filed as cell-based, murine. As to conditions: single agent, 72 hours.
The target in data set [8] is MAP4K5 (Homo sapiens, UniProt Q9Y4K4). Kind of data set: KINOMEscan kinome selectivity profiling. The class given is binding. Conditions: 10µM.
In data set [9] the test system is Del_19-containing EGFR mutants. Kind of data set: KINOMEscan kinome selectivity profiling. The class given is binding, human. Conditions: 10µM.
For data set [10], the system named is Ba/F3 cells harboring EGFR Del_19 variants. Kind of data set: Ba/F3 cell proliferation. It is filed as cell-based, murine. Conditions: 72 hours.
Data set [11] relates to H1975 xenograft mouse model. Nature of the data set: Pharmacodynamic study in H1975 xenograft. As to conditions: 3 doses; JBJ-04-125-02 100mg/kg, osimertinib 25mg/kg.
Data set [12] concerns the target TIE2 (Homo sapiens, UniProt Q02763). Nature of the data set: KINOMEscan kinome selectivity profiling. The class given is binding. As to conditions: 10µM.
Data set [13] concerns the target TIE1 (Homo sapiens, UniProt P35590). Nature of the data set: KINOMEscan kinome selectivity profiling. It is filed as binding. As to conditions: 10µM.
The subject of data set [14] is H3255GR cells. Kind of data set: IncuCyte Caspase-3/7 apoptosis assay. It is filed as cell-based, human. Conditions: 0.1μM osimertinib, 10μM allosteric inhibitor, or both; 72 hours.
The subject of data set [15] is H1975 cells. Kind of data set: Cell viability assay. As to conditions: 72 hours.
The test system of data set [16] is H1975 cells. Kind of data set: Western blotting of EGFR, AKT, ERK1/2 phosphorylation. As to conditions: 4 hours, compared to osimertinib. A general note: A western blot detects proteins with antibodies after separation by electrophoresis.
Data set [17] has as its system H1975 xenograft mouse model. As to conditions: for tumor volume change at day 18: osimertinib 2.5mg/kg, JBJ-04-125-02 100mg/kg, or both.
Data set [18] concerns H3255GR cells. Nature of the data set: IncuCyte long-term confluency assay. Conditions: osimertinib 1μM, JBJ-04-125-02 10μM or both, 2 weeks of treatment. The class given is cell-based, human.
In data set [19] the test system is wild-type EGFR Ba/F3 cells. Nature of the data set: Ba/F3 cell proliferation. It is filed as cell-based, murine. As to conditions: 72 hours.
Data set [20] relates to EGFR L858R/T790M/C797S genetically engineered mice. Nature of the data set: Efficacy study in GEM mice. It is filed as in vivo.
The test system of data set [21] is L858R/T790M Ba/F3 cells. Nature of the data set: ENU mutagenesis resistant colony assay. As to conditions: after ENU; 1μM osimertinib, 10μM JBJ-04-125-02, or combination; of 300 colonies.
In data set [22] the test system is H3255GR cells. Kind of data set: Cell viability assay. Conditions: 72 hours.
In data set [23] the test system is EGFR L858R/T790M/C797S genetically engineered mice. Kind of data set: Pharmacodynamic study in GEM mice. The class given is in vivo. Conditions: oral gavage once daily, 3 doses.
The subject of data set [24] is EGFR-mutant NSCLC patients. As to conditions: cited from earlier work; for PFS: osimertinib vs comparator arm gefitinib or erlotinib; for median PFS: patients with an L858R mutation, comparator arm gefitinib or erlotinib.
Data set [25] has as its system patients with advanced EGFR mutant NSCLC. As to conditions: initial therapy; cited from earlier work.
The test system of data set [26] is patients with EGFR T790M-mediated drug resistance. Conditions: cited from earlier work.
In data set [27] the target is L858R/T790M EGFR (Homo sapiens, UniProt P00533, L858R/T790M). Nature of the data set: HTRF-based EGFR biochemical assay. Conditions: read-out: IC50 (biochemical potency); enzyme 20pM, 100µM ATP. (TR-FRET usually uses a lanthanide donor and a delayed reading to cut background.)

Consider `O=C(Nc1nccs1)C(c1cc(F)ccc1O)N1Cc2ccccc2C1=O` (stereo not drawn) [EAI045], for which the co-binding with osimertinib entry in data set [1] was “did indeed co-bind with osimertinib and increase EGFR precipitation”. In addition, in [2], the single agent efficacy result is recorded as “not effective as a single agent”.

In general, half-life refers to how long it takes for the measured level to halve. With `O=C(Nc1nccs1)C(c1cc(F)ccc1O)N1Cc2ccc(-c3ccc(N4CCNCC4)cc3)cc2C1=O` (stereo not drawn) [JBJ-04-125-02], the “area under the curve (AUClast)” value in data set [3] (3 mg/kg intravenous (IV) dose) is 728577 ng·min/mL. This compound displayed a half-life in data set [3] (3 mg/kg intravenous (IV) dose) of 3 h. For the same compound, in data set [3] (20mg/kg oral dose), the “average maximal plasma concentration” value was found to be 1.1 µM. Also, in data set [3] (20mg/kg oral dose), the oral bioavailability is 3%. Also, the inhibition of growth result in data set [4] and in data set [19] was “did not inhibit the growth” each time. In addition, the “inhibition of cell proliferation” value in data set [5] is “not as potent as gefitinib in inhibiting cell proliferation”; in data set [7], “could inhibit cell proliferation as a single agent”. For the same compound, in data set [6], the “S-Score (35)” value is 0.02. Moreover, the figures for the “% control” value in data set [8], in [12] and in [13] were 9.5 % control, 33 % control and 29 % control, respectively. Besides, in [9], the binding affinity result is reported as “lacks binding affinity”. The “sensitivity of cell proliferation” value in [10] and in [22] was “resistant” throughout. In addition, the “EGFR, AKT and ERK1/2 phosphorylation in tumors” value in [11] was “reduction in EGFR phosphorylation but only subtle changes in AKT and ERK1/2 phosphorylation”. The “apoptosis (Caspase-3/7 activity)” value in [14] is given as “no more effective than DMSO”. For the same compound, in data set [15], the “concentration inhibiting cell proliferation” value is “low nanomolar concentrations”. Besides, the “EGFR and ERK1/2 phosphorylation” value in [16] was “downregulate EGFR and ERK1/2 phosphorylation more potently than osimertinib”. Besides, the “tumor volume change at day 18” value in data set [17] was “minimal reduction in tumor volume”. Moreover, the tumor growth result in data set [17] (osimertinib 25mg/kg, JBJ-04-125-02 100mg/kg, 35 days) is “tumor stasis and occasional shrinkage in some mice”. In addition, the “confluency at 2 weeks” value in data set [18] is “reached full confluency”. The “weight loss or signs of toxicity” value in data set [20] (50mg/kg long-term treatment) is “not associated with weight loss or overt signs of toxicity”. Also, the “change in tumor volume” value in data set [20] (50mg/kg, within 4 weeks, sustained for 15 weeks) is on record as “marked tumor regressions”. The resistant colonies in data set [21] is 72%. Besides, the “phosphorylation of EGFR, AKT and ERK1/2 in tumors” value in data set [23] (50mg/kg and 100mg/kg) is “effectively inhibited phosphorylation of EGFR, AKT and ERK1/2”.

On to `C=CC(=O)Nc1cc(Nc2nccc(-c3cn(C)c4ccccc34)n2)c(OC)cc1N(C)CCN(C)C` [osimertinib, reference compound], for which, in [24], the PFS is reported as 18.9 months and the “median PFS” value is 14.4 months. Also, in data set [25], the PFS is reported as 19.3 months and the RR is on record as 77%. For the same compound, in [26], the “progression free survivals (PFS)” value was 9.9–12.3 months and the “response rate (RR)” value is 62–71%. Moreover, the “EGFR, AKT and ERK1/2 phosphorylation in tumors” value in [11] is “complete inhibition of EGFR phosphorylation”. Moreover, the “apoptosis (Caspase-3/7 activity)” value in [14] is “time-dependent increase in apoptosis”. In addition, the “tumor volume change at day 18” value in data set [17] is “minimal reduction in tumor volume”. For the same compound, the tumor regression in data set [17] (osimertinib 25mg/kg alone or with JBJ-04-125-02 100mg/kg, 28 days) is recorded as ~100%. Further, in data set [18], the “confluency at 2 weeks” value was 24%. The “sensitivity of cell proliferation” value in [22] is given as “sensitive”.

As usually defined, the IC50 is the concentration needed to halve the response being measured. As for `O=C(Nc1nccs1)C(c1ccccc1)N1Cc2ccc(-c3ccc4[nH]ccc4c3)cc2C1=O` (stereo not drawn) [JBJ-02-112-05], the IC50 in data set [27] was found to be 15 nM. The “change in tumor volume” value in data set [20] (100mg/kg) is “ineffective”. The “phosphorylation of EGFR and downstream signaling in tumors” value in [23] (100mg/kg) was “also inhibited phosphorylation of EGFR and downstream signaling pathways although not as robustly as JBJ-04-125-02”.

For the compound `C#Cc1cccc(Nc2ncnc3cc(OCCOC)c(OCCOC)cc23)c1` [erlotinib], in data set [24], the PFS is 10.2 months and the “median PFS” value is 9.5 months.
